Data taken from patent US8633314B2, “Forms of a multicyclic compound” (Cephalon, Inc., priority 2009, dated 2014).

Columns and labels:
Format in all cases: physicochemical
[1] = Dynamic vapor sorption (DVS)
Method: Gravimetric vapor sorption experiments were carried out using the DVS-HT instrument (Surface Measurement Systems, London, UK). This instrument measures the uptake and loss of vapor gravimetrically using a recording ultra-microbalance with a mass resolution of ±0.1 μg. The vapor partial pressure (±1.0%) around the sample was controlled by mixing saturated and dry carrier gas streams using electronic mass flow controllers. The desired temperature was maintained at ±0.1° C.
The samples (10-25 mg) were placed into the DVS-HT instrument at the desired temperature. Two types of dynamic vapor sorption experiments were performed: • 1. The sample was initially dried in stream of dry air (<0.1% relative humidity (RH)) for 20 hours to establish a dry mass and exposed to two 0-90% RH cycles (in 10% RH increments). • 2. The sample was exposed at 90% RH for 20 hours and exposed to two 90-0% RH cycles (in 10% RH increments). Infrared Spectrometry (FTIR)

[2] = Solid state stress stability (storage; XRPD and stability-indicating HPLC); details: 40° C./75% RH
Method: Typically 10 μL aliquots of the sample solutions were diluted to 1 mL with acetonitrile and the assay concentrations were determined from an average of duplicate injections using the following HPLC method. The purity and impurity analyses are done using conventional HPLC.
Crystallization studies were performed to investigate polymorphism in 48 different solvents. Solvents were selected on the basis of acceptability (ICH Class 3 and 2) and to give a range of dielectric constants, dipole moments and functional groups. Two starting materials were selected: Form A0 and Lot 7 (a mixture of Form A0, Form HC0 and Form HD0). When possible, full characterization was performed on the new forms that were generated during the polymorphism screening of Compound I. This characterization consisted of: XRPD, thermal analysis, DVS, storage at 40° C./75% RH and purity.
Stress stability studies were performed to get a timely impression of the influence of temperature and humidity on form stability. A stability-indicating HPLC assay method was developed for quantitation of Compound I and its major degradation product, 7-methoxy-1,2,3,11-tetrahydro-5,11-diaza-benzo[a]trindene-4,6-dione, previously referred to as “Compound E”.

[3] = Thermodynamic solubility of monohydrate forms in organic solvents
Method: Experiments were set up to measure the thermodynamic solubility of these monohydrate forms at room temperature and 55° C. in ethyl acetate, MTBE and 1-pentanol.

[4] = Irregular DVS (90 to 0% RH), listed as HD0
[5] = Regular DVS (0 to 90% RH), listed as HD0

## COc1cccc2[nH]c3c4c(c5c(c3c12)C(=O)N(CN1CCN(C)CC1)C5=O)CCC4 [Form HD0, 4,5,6,7-tetrahydro-11-methoxy-2-[(4-methyl-1-piperazinyl)methyl]-1H-cyclopenta[a]pyrrolo[3,4-c]carbazole-1,3(2H)-dione]
[1]; Irregular DVS (90 to 0% RH)
  Total uptake at 90% RH: 0.8%
  changes by XRPD re-analysis after DVS: No significant changes
[1]; [4]
  At 75% RH uptake: 0.4%
  Total uptake at 90% RH: 0.8%
[1]; Regular DVS (0 to 90% RH)
  Total uptake at 90% RH: 0.6%
  changes by XRPD re-analysis after DVS: No significant changes
[1]; [5]
  At 75% RH uptake: 0.4%
  Total uptake at 90% RH: 0.6%
[2]; 4 weeks
  Chemical Stability (HPLC (post 4 weeks at 40° C./75% RH (Area %))): 92.3 Area %
[2]; 0 days
  HPLC % Compound I: 93.5% Compound I,
  XRPD (form found): HD0
[2]; 7 days
  HPLC % Compound I: 92.2% Compound I,
  XRPD (form found): HD0
[2]; 13 days
  HPLC % Compound I: 92.3% Compound I,
  XRPD (form found): HD0
[2]; 28 days
  HPLC % Compound I: 92.3% Compound I,
  XRPD (form found): HD0
[3]; between room temperature and 55° C.
  relative thermodynamic stability in solution: more thermodynamically stable than Form HC0 and form HA0
[3]; ethyl acetate, MTBE, 1-pentanol, RT and 55° C.
  solubility relative to the other hydrated polymorph (Form HC0): always higher
